# Laboratory results published in patent US12065445B2, “CDK2 inhibitors and methods of using the same” (Cedilla Therapeutics, Inc., priority 2021, dated 2024).
# pIC50: −log10 of the molar value.
# System: Kuramochi cells
# Assay: BrdU Cell Proliferation Assay
# Format: cell-based
# Details: read-out: BrdU - KURAMOCHI.1: IC50
# In short: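 Signal is 450 nm absorbance from a peroxidase anti-BrdU ELISA after a 1-hour BrdU label, background-subtracted and normalized to DMSO-treated wells. Kuramochi cells (2,000 per well) had been exposed to compound for 4 days. Dosing used a 10-point dose response in 3-fold steps.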
row,Compound,pIC50
1,CNC(=O)[C@@H](NC(=O)[C@H]1CN(C(=O)c2cnn(Cc3ccccc3)c2)CC12CN(C(=O)C1(C(F)(F)F)CC1)C2)[C@@H](C)OCc1ccccc1 [I-108B],< 5.00
2,CNC(=O)[C@@H](NC(=O)[C@@H]1CN(C(=O)c2cnn(Cc3ccccc3)c2)CC12CN(C(=O)[C@H]1CC1(C)C)C2)[C@@H](C)OCC1CCCC1 [I-110A],5.30 to 6.30
3,CNC(=O)[C@@H](NC(=O)[C@@H]1CN(C(=O)c2n[nH]c3ccccc23)CC12CN(C(=O)[C@H]1CC1(C)C)C2)[C@@H](C)OCc1ccccc1 [I-112A],< 5.00
4,CNC(=O)[C@@H](NC(=O)[C@H]1CN(C(=O)c2n[nH]c3ccccc23)CC12CN(C(=O)[C@H]1CC1(C)C)C2)[C@@H](C)OCc1ccccc1 [I-112B],< 5.00
5,"CNC(=O)[C@H](COCc1ccccc1)NC(=O)[C@@H]1CN(C(=O)c2cnn(Cc3ccccc3)c2)CC12CN(C(=O)C1(C(F)(F)F)CC1)C2 [I-113A, (S)-6-(1-benzyl-1H-pyrazole-4-carbonyl)-N—((S)-3-(benzyloxy)-1-(methylamino)-1-oxopropan-2-yl)-2-(1-(trifluoromethyl)cyclopropane-1-carbonyl)-2,6-diazaspiro[3.4]octane-8-carboxamide]",< 5.00
6,CNC(=O)[C@@H](NC(=O)[C@@H]1CN(C(=O)c2cnn(Cc3ccccc3)c2)CC12CN(C(=O)C1(C3CC3)CC1)C2)[C@@H](C)OCc1ccccc1 [I-114A],< 5.00
7,CNC(=O)[C@@H](NC(=O)[C@H]1CN(C(=O)c2cnn(Cc3ccccc3)c2)CC12CN(C(=O)C1(C3CC3)CC1)C2)[C@@H](C)OCc1ccccc1 [I-114B],< 5.00
8,CNC(=O)[C@@H](NC(=O)[C@@H]1CN(C(=O)c2cnn(Cc3ccccc3)c2)CC12CN(C(=O)C1(CC3CC3)CC1)C2)[C@@H](C)OCc1ccccc1 [I-116A],< 5.00
9,CNC(=O)[C@@H](NC(=O)[C@H]1CN(C(=O)c2cnn(Cc3ccccc3)c2)CC12CN(C(=O)C1(CC3CC3)CC1)C2)[C@@H](C)OCc1ccccc1 [I-116B],< 5.00
10,CNC(=O)[C@@H](NC(=O)[C@@H]1CN(C(=O)c2cnn(Cc3ccccc3)c2)CC12CN(C(=O)C1(CCF)CC1)C2)[C@@H](C)OCc1ccccc1 [I-117A],< 5.00
11,CNC(=O)[C@@H](NC(=O)[C@H]1CN(C(=O)c2cnn(Cc3ccccc3)c2)CC12CN(C(=O)C1(CCF)CC1)C2)[C@@H](C)OCc1ccccc1 [I-117B],< 5.00
12,CNC(=O)[C@@H](NC(=O)[C@@H]1CN(C(=O)c2cnn(Cc3ccccc3)c2)CC12CN(C(=O)[C@H]1CC1(C)C)C2)[C@@H](C)OCC1CCOCC1 [I-119A],< 5.00
13,CNC(=O)[C@@H](NC(=O)[C@H]1CN(C(=O)c2cnn(Cc3ccccc3)c2)CC12CN(C(=O)[C@H]1CC1(C)C)C2)[C@@H](C)OCC1CCOCC1 [I-119B],< 5.00
14,CC1(C)C[C@@H]1C(=O)N1CC2(CN(C(=O)c3cnn(Cc4ccccc4)c3)C[C@H]2C(=O)N[C@H]2CCc3cc(Cl)ccc32)C1 [I-120A],< 5.00
15,CC1(C)C[C@@H]1C(=O)N1CC2(CN(C(=O)c3cnn(Cc4ccccc4)c3)C[C@@H]2C(=O)N[C@H]2CCc3cc(Cl)ccc32)C1 [I-120B],< 5.00
16,CNC(=O)[C@@H](NC(=O)[C@@H]1CN(C(=O)c2cnn(CC3CCOCC3)c2)CC12CN(C(=O)[C@H]1CC1(C)C)C2)[C@@H](C)OCC1CCCCC1 [I-121A],5.00 to 5.30
17,CNC(=O)[C@@H](NC(=O)[C@H]1CN(C(=O)c2cnn(CC3CCOCC3)c2)CC12CN(C(=O)[C@H]1CC1(C)C)C2)[C@@H](C)OCC1CCCCC1 [I-121B],< 5.00
18,COCCNC(=O)[C@@H]1CN(C(=O)c2cnn(Cc3ccccc3)c2)CC12CN(C(=O)[C@H]1CC1(C)C)C2 [I-122A],< 5.00
19,COCCNC(=O)[C@H]1CN(C(=O)c2cnn(Cc3ccccc3)c2)CC12CN(C(=O)[C@H]1CC1(C)C)C2 [I-122B],< 5.00
20,CNC(=O)[C@@H](NC(=O)[C@H]1CN(C(=O)c2cnn(Cc3ccccc3)c2)CC12CN(C(=O)[C@H]1CC1(C)C)C2)[C@@H](C)OCC1CCCCC1 [I-123B],< 5.00
21,C[C@@H]1C[C@H](C)CN(C(=O)[C@@H](NC(=O)C2CN(C(=O)c3cn[nH]c3)CC23CN(C(=O)[C@H]2CC2(C)C)C3)[C@@H](C)OCc2ccccc2)C1 (some centres unmarked) [I-124],< 5.00
22,COc1cccc(CNC(=O)[C@@H]2CN(C(=O)c3cnn(Cc4ccccc4)c3)CC23CN(C(=O)[C@H]2CC2(C)C)C3)n1 [I-126A],< 5.00
23,COc1cccc(CNC(=O)[C@H]2CN(C(=O)c3cnn(Cc4ccccc4)c3)CC23CN(C(=O)[C@H]2CC2(C)C)C3)n1 [I-126B],< 5.00
24,C[C@H](NC(=O)[C@@H]1CN(C(=O)c2cnn(Cc3ccccc3)c2)CC12CN(C(=O)[C@H]1CC1(C)C)C2)c1cccc(F)c1 [I-127A],< 5.00
25,C[C@H](NC(=O)[C@H]1CN(C(=O)c2cnn(Cc3ccccc3)c2)CC12CN(C(=O)[C@H]1CC1(C)C)C2)c1cccc(F)c1 [I-127B],< 5.00
26,C[C@@H](NC(=O)[C@@H]1CN(C(=O)c2cnn(Cc3ccccc3)c2)CC12CN(C(=O)[C@H]1CC1(C)C)C2)c1cccc(F)c1 [I-128A],< 5.00
27,C[C@@H](NC(=O)[C@H]1CN(C(=O)c2cnn(Cc3ccccc3)c2)CC12CN(C(=O)[C@H]1CC1(C)C)C2)c1cccc(F)c1 [I-128B],< 5.00

row,Compound,pIC50
1,CNC(=O)[C@@H](NC(=O)[C@H]1CN(C(=O)c2cncs2)CC12CN(C(=O)[C@H]1CC1(C)C)C2)[C@@H](C)OCC1CCCCC1 [I-129B],< 5.00
2,CNC(=O)[C@@H](NC(=O)[C@H]1CN(C(=O)c2cnn(Cc3ccccc3)c2)CC12CN(C(=O)[C@H]1CC1(C)C)C2)[C@@H](C)OCC(C)(C)C [I-130B],< 5.00
3,CO[C@H]1COCC[C@@H]1NC(=O)[C@H]1CN(C(=O)c2cnn(Cc3ccccc3)c2)CC12CN(C(=O)[C@H]1CC1(C)C)C2 [I-131B],< 5.00
4,CC1(C)C[C@@H]1C(=O)N1CC2(CN(C(=O)c3cnn(Cc4ccccc4)c3)C[C@H]2C(=O)N[C@H]2CCc3cc(Cl)ccc32)C1 [I-133A],< 5.00
5,CNC(=O)[C@@H](NC(=O)[C@H]1CN(C(=O)c2cnn(Cc3ccc(F)cc3)c2)CC12CN(C(=O)[C@H]1CC1(C)C)C2)[C@@H](C)OCc1ccc(F)cc1 [I-136B],< 5.00
6,"CC1(C)C[C@@H]1C(=O)N1CC2(CN(C(=O)c3cnn(Cc4ccccc4)c3)C[C@H]2C(=O)Nc2ccc(Cc3ccccc3)nc2)C1 [I-139, (S)-6-(1-benzyl-1H-pyrazole-4-carbonyl)-N-(6-benzylpyridin-3-yl)-2-((S)-2,2-dimethylcyclopropane-1-carbonyl)-2,6-diazaspiro[3.4]octane-8-carboxamide]",< 5.00
7,CC1(C)C[C@@H]1C(=O)N1CC2(CN(C(=O)c3cnn(Cc4ccccc4)c3)C[C@@H]2C(=O)N[C@H]2C[C@@H]2c2cccc(Cl)c2)C1 [I-140B],< 5.00
8,CNC(=O)[C@@H](NC(=O)[C@@H]1CN(C(=O)c2cnn(Cc3ccccc3)c2)CC12CN(C(=O)[C@H]1CC1(C)C)C2)[C@@H](C)OCC1CCC(C(F)(F)F)CC1 (some centres unmarked) [I-141A],5.30 to 6.30
9,COC(=O)C1(NC(=O)[C@H]2CN(C(=O)c3cnn(Cc4ccccc4)c3)CC23CN(C(=O)[C@H]2CC2(C)C)C3)COC1 [I-142A],< 5.00
10,COC(=O)C1(NC(=O)[C@@H]2CN(C(=O)c3cnn(Cc4ccccc4)c3)CC23CN(C(=O)[C@H]2CC2(C)C)C3)COC1 [I-142B],< 5.00
11,CNC(=O)[C@@H](NC(=O)[C@H]1CN(Cc2n[nH]c3ccccc23)CC12CN(C(=O)[C@H]1CC1(C)C)C2)[C@@H](C)OCc1ccccc1 [I-143],< 5.00
12,CNC(=O)[C@@H](NC(=O)[C@@H]1CN(C(=O)c2cnn(Cc3ccccc3)c2)CC12CN(C(=O)[C@H]1CC1(C)C)C2)[C@@H](C)OCC1CCC1 [I-144A],< 5.00
13,CNC(=O)[C@@H](NC(=O)[C@H]1CN(C(=O)c2cnn(Cc3ccccc3)c2)CC12CN(C(=O)[C@H]1CC1(C)C)C2)[C@@H](C)OCC1CCC1 [I-144B],< 5.00
14,CNC(=O)[C@@H](NC(=O)[C@@H]1CN(C(=O)c2cnc(COC)s2)CC12CN(C(=O)[C@H]1CC1(C)C)C2)[C@@H](C)OCC1CCCCC1 [I-145A],5.30 to 6.30
15,CNC(=O)[C@@H](NC(=O)[C@H]1CN(C(=O)c2cnc(COC)s2)CC12CN(C(=O)[C@H]1CC1(C)C)C2)[C@@H](C)OCC1CCCCC1 [I-145B],< 5.00
16,CNC(=O)[C@@H](NC(=O)[C@H]1CN(C(=O)c2nccs2)CC12CN(C(=O)[C@H]1CC1(C)C)C2)[C@@H](C)OCC1CCCCC1 [I-146],< 5.00
17,CO[C@H]1COCC[C@@H]1NC(=O)[C@H]1CN(C(=O)c2cnn(Cc3ccccc3)c2)CC12CN(C(=O)[C@H]1CC1(C)C)C2 [I-148B],< 5.00
18,C[C@@H](OCC1CCCCC1)[C@H](NC(=O)[C@H]1CN(C(=O)c2cnn(Cc3ccccc3)c2)CC12CN(C(=O)[C@H]1CC1(C)C)C2)C(=O)N1CCC(F)(F)CC1 [I-149B],< 5.00
19,C[C@@H](OCC1CCCCC1)[C@H](NC(=O)[C@H]1CN(C(=O)c2cn[nH]c2)CC12CN(C(=O)[C@H]1CC1(C)C)C2)C(=O)N1CCCCC1 [I-151B],< 5.00
20,C[C@@H](OCC1CCCCC1)[C@H](NC(=O)[C@H]1CN(C(=O)c2cnn(Cc3ccccc3)c2)CC12CN(C(=O)[C@H]1CC1(C)C)C2)C(=O)N1CC(C)(C)C1 [I-153B],< 5.00
21,C[C@@H](OCC1CCCCC1)[C@H](NC(=O)[C@H]1CN(C(=O)c2cn[nH]c2)CC12CN(C(=O)[C@H]1CC1(C)C)C2)C(=O)N1CCC(F)(F)CC1 [I-154B],< 5.00
22,CNC(=O)[C@H](CCCC1CCCCC1)NC(=O)[C@@H]1CN(C(=O)c2cnn(Cc3ccccc3)c2)CC12CN(C(=O)[C@H]1CC1(C)C)C2 [I-155A],< 5.00
23,CNC(=O)[C@H](CCCC1CCCCC1)NC(=O)[C@H]1CN(C(=O)c2cnn(Cc3ccccc3)c2)CC12CN(C(=O)[C@H]1CC1(C)C)C2 [I-155B],< 5.00
24,CNC(=O)[C@@H](NC(=O)[C@@H]1CN(C(=O)c2cnc(C)s2)CC12CN(C(=O)[C@H]1CC1(C)C)C2)[C@@H](C)OCC1CCCCC1 [I-156A],5.00 to 5.30
25,CNC(=O)[C@@H](NC(=O)[C@H]1CN(C(=O)c2scnc2Cl)CC12CN(C(=O)[C@H]1CC1(C)C)C2)[C@@H](C)OCC1CCCCC1 [I-157B],< 5.00
26,Cc1noc([C@H](C)NC(=O)[C@@H]2CN(C(=O)c3cnn(Cc4ccccc4)c3)CC23CN(C(=O)[C@H]2CC2(C)C)C3)n1 [I-158A],< 5.00
